What was measured:
[1] = Cell viability, LDH release assay, normal HUVECs; settings: human, normal HUVECs, Mean % of viable cells ± SD, HUVEC
Experimental: (§1) The studied compounds were also screened for their cytotoxic effects on HCT-116 and LoVo colon carcinoma cells, as well as normal HUVECs, using the standard LDH assay at a concentration of 100 µg/mL.
(§2) The antiproliferative activities of the newly synthesized compounds 3a–e, 8, 9a–c, 13, 14, 17, 18a–h, 20, 22, 23 and 25 were examined on human colon HCT-116 and LoVo cell lines as well as HUVEC (American Type Culture Collection, Manassas, VA, USA). […]
medium served used as negative and positive controls, respectively. Percentages of viable cells […]
were calculated based on relative optical density (OD) values (at 550 nm) for compound-treated […]
wells (final concentration of 100 μg/mL), compared to the negative control, and expressed as mean value (%) ± SD from two replicates. Graphing dose-response curves representing the compound […]
concentration versus the percentages of viable cells was also conducted to deduce the half - […]
Additionally, the safety profiles of the studied compounds were assessed against normal cells […]
(HUVECs) at final concentration of 100 μg/mL . HUVECs were grown in Dulbecco’s Modified Eagle’s Medium supplemented with 10% FBS, 2 mM glutamine (Sigma Aldrich), 100 units/mL penicillin and […] streptomycin (Life Technologies; Paisley, UK). […]

[2] = tested on: HCT-116 colon carcinoma cells; assay: Cell viability, LDH release assay, HCT-116; settings: for viability at 100 µg/mL / IC50: Homo sapiens, HCT-116, 48 h; for viability at 100 µg/mL: read-out: Mean % of viable cells ± SD, HCT-116, 100 µg/mL, 48 h, LDH release assay; for IC50: read-out: Mean IC50 Values in µM ± SD, HCT-116 cells
Experimental: as §1, §2
(§3) S3.2.4. Cell culture and viability assay.
(§4) The cytotoxic activities of the newly synthesized compounds (3a-e, 8, 9a-c, 13, 14, 17, 18a-h, 20, 22,
(§5) 23, and 25) were examined on human colon cancer cell lines HCT-116 and Lovo (American Type
(§6) Culture Collection, USA). Various concentrations (50, 100, 200, and 400 μg/mL) of test compounds
(§7) were prepared in Dulbecco’s Modified Eagles Medium (PAN-Biotech, Barcelona, Spain),

[3] = molecular target: recombinant human LDHA protein (Homo sapiens, UniProt P00338); assay: In vitro LDHA inhibitory assay (NADH consumption); type: biochemical; settings: for inhibition at 100 µg/mL: three replicates, read-out: Mean Inhibition Percent ± SD, LDHA
Excerpt: The LDHA inhibitory efficiencies were investigated on Spectramax M2 spectrofluorometer via measuring the amounts of the consumed NADH^40 using an NAD^+/NADH quantification kit. […]
S3.2.3. In vitro LDHA inhibitory assay.
The LDHA inhibitory activity of the test compounds was investigated using Spectramax M2
spectrofluorometer by measuring the amounts of the consumed NADH [42] employing
NAD+/NADH quantification kit. Briefly, the assay medium containing various concentrations of
each test compound (50, 100, 200 and 300 μg/mL) was incubated in assay medium composed of 20
mM of HEPES-K+ buffer (pH 7.2), 20 μM of NADH, 2 mM of pyruvate and 10 ng of purified
recombinant human LDHA protein for 10 min utes. The activity of LDHA would result in reduction
of pyruvate into lactate with concomitant oxidation of NADH to NAD +. Since NADH (reduced
LDHA, could be inversely quantified by monitoring the change in the intensity of the fluorescence
at 340 nm over a 10-minute period. The rate of the fluorescence change (slope) in treated samples
was compared to that obtained from negative control experiment (100 % enzymatic activity) to
determine the percentage of inhibition. The IC50 value—defined as the compound concentration
required to reduce the luminescence by 50%, compared to untreated control wells—was
determined for each compound from the corresponding dose–response curve generated by
plotting LDHA inhibition (%) against compound concentration.
was used as the reference LDHA inhibitor. […]

[4] = molecular target: PDK-1 (Homo sapiens, UniProt Q15118); assay: In vitro PDK-1 inhibition assay (Kinase-Glo luminescent kinase kit); type: biochemical; settings: for inhibition at 100 µg/mL: three replicates, read-out: Mean Inhibition Percent ± SD, PDK-1
PDK-1, sequence (Q15118 29-436): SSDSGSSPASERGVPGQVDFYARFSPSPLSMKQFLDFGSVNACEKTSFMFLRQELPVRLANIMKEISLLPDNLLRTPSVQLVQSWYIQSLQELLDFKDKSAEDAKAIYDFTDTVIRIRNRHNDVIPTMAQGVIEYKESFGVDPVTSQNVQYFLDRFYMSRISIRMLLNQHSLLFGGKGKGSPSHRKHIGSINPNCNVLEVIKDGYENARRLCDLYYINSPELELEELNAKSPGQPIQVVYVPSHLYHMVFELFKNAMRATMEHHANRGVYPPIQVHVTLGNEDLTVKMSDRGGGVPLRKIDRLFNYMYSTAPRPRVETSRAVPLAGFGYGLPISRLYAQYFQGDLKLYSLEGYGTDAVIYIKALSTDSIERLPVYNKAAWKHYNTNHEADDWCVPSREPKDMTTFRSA
Experimental: Principally, the PDK-1 inhibitory activities were evaluated using the non-radioactive Kinase-Glo™ Luminescent Kinase Kit (Promega Corporation, Madison, WI, USA) following the instructions of the manufacturer.
S3.2.2. In vitro PDK-1 inhibition assay.
The PDK-1 inhibitory activities of the test compounds were evaluated using the non-radioactive
Kinase-Glo™ Luminescent Kinase kit (Promega Corporation, Madison, WI, USA), following the
manufacturer’s protocol. Briefly, 5 μL of assay buffer—containing 10 × 250 mM Tris-HCl, 50 mM
MgCl2, 5 mM ethyleneglycol-bis(β-aminoethylether)-N,N,N′,N′-tetraacetic acid (EGTA), 10 mM
ethylenedi- aminetetraacetic acid (EDTA), and 10 mM dithiothreitol (DTT)—was added to each
well of a 96-well plate, along with 25 μL of distilled water. Subsequently, 5 μL of each test
compound at various concentrations (50, 100, 200 and 300 μg/mL in 1% DMSO) was added to the
respective wells, except for the two control wells, which received 5 μL of either PBS buffer or 1%
DMSO. Then, 5 μL of pyruvate dehydrogenase E1 (PDH E1) protein (10 μM) and 5 μL of ATP
(10 μM) were added to each well. To initiate phosphorylation, 5 μL of PDK-1 (20 μM) in protein
buffer (1 mM MgCl2, 2000 mM KCl, 40 mM K3PO4) was added to all the wells except the control
wells, which received 5 μL of protein buffer instead. The plate was then mixed thoroughly and
incubated at 37 °C for 30 minutes. After incubation, 50 μL of kinase-Glo® reagent was added to each
well, followed by a 10-minute incubation at room temperature with gentle shaking to stabilize the
luminescent signal. Luminescence was then measured using a microplate reader.
The IC50 value—defined as the concentration of a compound required to reduce luminescence by
50%, compared to untreated control wells—was determined for each compound from the
corresponding dose–response curve generated by plotting PDK-1 inhibition (%) versus compound
concentration. Sodium dichloroacetate (SDA, 1000 μM) was used as a reference PDK-1inhibitor. […]

[5] = tested on: LoVo colon carcinoma cells; assay: Cell viability, LDH release assay, LoVo; settings: for viability at 100 µg/mL / IC50: Homo sapiens, LoVo, 48 h; for viability at 100 µg/mL: read-out: Mean % of viable cells ± SD, LoVo, 100 µg/mL, 48 h, LDH release assay; for IC50: read-out: Mean IC50 Values in µM ± SD, LoVo cells
Experimental: as §1, §2, §3, §4, §5, §6, §7

[6] = DPPH radical scavenging assay; settings: three independent experiments; read-out: Mean IC50 (mM) for initial DPPH radicals ± SD
Experimental: The antioxidant activities of the studied compounds were assessed using the 1,1-diphenyl-2-picrylhydrazyl (DPPH) radical scavenging method as detailed by Bersuder et al.. The results were expressed as IC50 (mM)—the concentration of the test compound required to neutralize 50% of DPPH radicals.
The antioxidant efficiencies of target compounds were determined using the 1,1-diphenyl-2-picrylhydrazyl (DPPH) radical scavenging method as detailed by Bersuder et al.. […]
S3.2. Evaluation of Biological Activities.
S3.2.1. In vitro DPPH radical scavenging assay.
The antioxidant efficiencies of compounds—3a−e, 8, 9a−c, 13, 14, 17, 18a−h, 20, 22, 23, and 25—were
determined using the 1,1-diphenyl-2-picrylhydrazyl (DPPH) radical scavenging method as
detailed by Bersuder et al.. Fundamentally, the purple color of the stabilized DPPH radical
fades in the presence of an antioxidant, thus, the change of absorbance can be followed
spectrophotometrically at 519 nm. In the assay, equal volumes (0.5 mL) of DPPH ethanolic solution
and each compound (0-2 mg/mL in DMSO) or butylated hydroxytoluene (BHT) as the reference
were mixed well by shaking. The negative control consisted of the same amount of DMSO and
DPPH solution. After, incubation all mixtures at room temperature in the dark for one hour, the
absorbance of the residual DPPH radicals was measured at 519 nm using the UV‐vis
spectrophotometer. The DPPH radical scavenging activity of each compound (%) was calculated
Scavenging activity = (1 − Acompound/AControl) * 100, where Acompound and Acontrol the absorbance values
of each tested compound (or BHT) and the negative control, respectively. The half maximal
inhibitory concentration (IC50) for each compound in mg/mL was deduced by graphing the dose-
response curve relating the scavenging activity (%) to the compound concentration. Data points
represent the mean ± standard deviation (SD) of three independent determinations.

[7] = 0.1% Triton X-100 in assay medium

Row | Molecule | IC50 [2] | inhibition at 100 µg/mL [3] | IC50 ([3]; three independent experiments, read-out: Mean IC50 µM ± SD, LDHA) | inhibition at 100 µg/mL [4] | IC50 ([4]; three independent experiments, read-out: Mean IC50 µM ± SD, PDK-1) | IC50 [5] | IC50 [6] | inhibition at 1000 µM ([3]; SO at 1000 µM (111.03 µg/mL), read-out: Mean Inhibition Percent, LDHA (reference inhibitor)) | viability at 48 h, 100 µg/mL [1] | viability at 100 µg/mL [2] | viability at 100 µg/mL [5] | Mean % of viable cells, HCT-116 (positive control) [2, 7] | Mean % of viable cells, LoVo (positive control) [5, 7]
1 | COc1cc(/C=C(\NC(=O)c2ccccc2)C(=O)NNC(=S)Nc2ccccc2)ccc1O [Compound 23, N-(1-(4-Hydroxy-3-methoxyphenyl)-3-oxo-3-(2-(phenylcarbamothionyl)hydrazinyl)prop-1-en-2-yl)benzamide] | 215.4 ± 1.25 µM | 34.4 ± 3.32% |  | 11 ± 1.41% |  | 444 ± 9.17 µM | 1.21 ± 0.03 mM |  | 80 ± 1.92% | 23 ± 2.83% | 57.5 ± 2.12% |  | 
2 | COc1cc(C=C(NC(=O)c2ccccc2)c2n[nH]c(=S)o2)ccc1O [Compound 22, N-(2-(4-Hydroxy-3-methoxyphenyl)-1-(5-thioxo-4,5-dihydro-1,3,4-oxa-diazol-2-yl)vinyl)benzamide] | 511 ± 5.61 µM | 27.2 ± 2.48% |  | 39.5 ± 2.12% |  | 437.3 ± 1.51 µM | 0.65 ± 0.076 mM |  | 79 ± 2% | 40.5 ± 3.54% | 29.5 ± 2.12% |  | 
3 | NC(=O)C(=O)O [SO, sodium oxamate, reference compound] |  |  |  |  |  |  |  | 100% |  |  |  |  | 
4 | Triton X-100 [reference compound] |  |  |  |  |  |  |  |  |  |  |  | 0% | 0%

More lines, main results first:

Row | IC50 [2] | inhibition at 100 µg/mL [3] | IC50 ([3]; three independent experiments, read-out: Mean IC50 µM ± SD, LDHA) | inhibition at 100 µg/mL [4] | IC50 ([4]; three independent experiments, read-out: Mean IC50 µM ± SD, PDK-1) | IC50 [5] | IC50 [6] | inhibition at 1000 µM ([3]; SO at 1000 µM (111.03 µg/mL), read-out: Mean Inhibition Percent, LDHA (reference inhibitor)) | Molecule | viability at 48 h, 100 µg/mL [1] | viability at 100 µg/mL [2] | viability at 100 µg/mL [5] | Mean % of viable cells, HCT-116 (positive control) [2, 7] | Mean % of viable cells, LoVo (positive control) [5, 7]
5 | 302 ± 10.5 µM | 5.75 ± 0.35% | 1060 ± 7.64 µM | 91 ± 2.83% | 169 ± 1.81 µM | 277 ± 0.21 µM | 0.307 ± 0.01 mM |  | CCOC(=O)Nn1c(C)nc2cc(OC)c(OC)cc2c1=O [Compound 17, Ethyl (6,7-Dimethoxy-2-methyl-4-oxoquinazolin-3(4H)-yl)carbamate] | 96 ± 2.56% | 20.5 ± 2.12% | 10.5 ± 0.71% |  | 
6 |  |  |  |  |  |  | 0.245 ± 0.027 mM |  | Cc1cc(C(C)(C)C)c(O)c(C(C)(C)C)c1 [BHT, butylated hydroxytoluene, reference compound] |  |  |  |  | 

— publication PMC12196476, “New Nitrogen-, Oxygen-, and Sulfur-Containing Heterocyclic Compounds as Anti-Colon Cancer Agents: Synthesis, Multitargeted Evaluations, Molecular Docking Simulations and ADMET Predictions” (Pharmaceuticals, 2025)
